Data on five molecules can be found in patent publication US8729254B2, “Derivative of glucose and vitamin F, compositions comprising it, uses and preparation process” (L'Oreal, priority 2002, dated 2014).

Data set [1] addresses T1, purified soybean 15-lipoxygenase L1 (Glycine max, UniProt P08170).
T1 sequence (P08170 1-839): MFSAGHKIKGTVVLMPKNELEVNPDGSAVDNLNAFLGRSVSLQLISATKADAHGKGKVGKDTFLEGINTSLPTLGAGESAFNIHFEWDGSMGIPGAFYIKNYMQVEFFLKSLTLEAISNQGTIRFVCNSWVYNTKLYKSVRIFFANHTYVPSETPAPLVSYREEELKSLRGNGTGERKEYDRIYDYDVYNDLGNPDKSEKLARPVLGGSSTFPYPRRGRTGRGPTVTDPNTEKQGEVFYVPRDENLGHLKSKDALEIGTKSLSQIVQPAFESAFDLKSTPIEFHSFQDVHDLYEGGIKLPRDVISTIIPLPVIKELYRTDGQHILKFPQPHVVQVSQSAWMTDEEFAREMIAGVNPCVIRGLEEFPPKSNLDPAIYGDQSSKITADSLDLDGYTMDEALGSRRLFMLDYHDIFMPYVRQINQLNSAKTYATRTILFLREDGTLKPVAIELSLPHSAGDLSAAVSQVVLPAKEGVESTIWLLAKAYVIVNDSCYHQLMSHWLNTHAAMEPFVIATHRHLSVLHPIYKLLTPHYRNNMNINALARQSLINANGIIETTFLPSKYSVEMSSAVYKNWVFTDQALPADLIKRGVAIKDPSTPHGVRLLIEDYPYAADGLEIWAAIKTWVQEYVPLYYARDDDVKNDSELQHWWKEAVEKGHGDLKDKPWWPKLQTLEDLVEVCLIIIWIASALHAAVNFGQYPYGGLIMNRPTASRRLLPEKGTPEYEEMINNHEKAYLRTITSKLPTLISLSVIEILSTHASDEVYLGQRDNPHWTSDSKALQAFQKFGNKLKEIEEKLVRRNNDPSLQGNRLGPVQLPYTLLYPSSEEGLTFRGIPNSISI
Put plainly: inhibition of purified soybean 15-lipoxygenase (oxymeter, Vmax of oxygen consumption). The class given is biochemical. As to conditions: test compound at 1 mM, relative to the control (DMSO), 25° C., pH 7.5, average of 10 tests. The method, then: The effect of the compounds of disclosed herein on the inhibition of purified soybean 15-lipoxygenase was thus tested, given that soybean 15-lipoxygenase is a study model commonly used as a predictive model for human 5-lipoxygenase.
The test performed was as follows:
preparation of a 100 mM, pH 7.5 Tris buffer solution
preparation of a suspension of purified soybean 15-lipoxygenase L1 (0.20 mg/ml) in a pH 7.5100 mM Tris buffer; storage in ice;
calibration of the oxymeter, tank equipped with a magnetic stirring system and thermostatically maintained at 25° C.;
preparation of an aqueous-alcoholic solution (absolute ethanol/water, 5/95, v/v) of potassium arachidonate at a concentration of 7.5 mM;
preparation of a solution of the test compound at a concentration of 30 mM in dimethyl sulphoxide (DMSO);
introduction into the oxymeter tank, with stirring, of 456.6 μl of buffer solution, 16.7 μl of potassium arachidonate solution and 16.7 μl of solution of the test compound or 16.7 μl of DMSO in the case of the “control” measurement.
The recorder was switched on and 10 μl of suspension of 15-lipoxygenase was introduced into the tank.
The maximum rate of consumption of oxygen (Vmax) was recorded.
The various Vmax values were compared with that of the control and the results were expressed as a % thereof. The test was repeated 10 times and an average of these 10 tests were determined.

For data set [2] the following is noted: 0.1% by weight in ethanol/isopropanol/water (64/16/20 by volume), 45° C., 2 months; hydrolysed glucopyranose linoleate by HPLC.
Method: The stability of the compounds disclosed herein were assessed (measured by the hydrolysis of the esters).
Solutions comprising 0.1% by weight of the compounds in an ethanol/isopropanol/water mixture (64/16/20 by volume) were prepared. These solutions were left in a chamber thermostatically maintained at 45° C. for 2 months.

Take `CCCCCCCCCCCCCCCCCC(=O)OC[C@H]1OC(O)[C@H](O)[C@@H](O)[C@@H]1O` (stereo partly drawn) [Compound C, 6-O-octadecanoyl-D-glucopyranose]: at 1000 µM the inhibition in data set [1] was 49%. For the molecule `CCCCCCCCC=CCCCCCCCC(=O)OC[C@H]1OC(O)[C@H](O)[C@@H](O)[C@@H]1O` (stereo partly drawn) [Compound B, 6-O-octadeca-9-enoyl-D-glucopyranose], in data set [1], testing at 1000 µM gave an inhibition of 30%.

`CCCCCC=CCC=CCCCCCCCC(=O)OC[C@H]1OC(O)[C@H](O)[C@@H](O)[C@@H]1O` (stereo partly drawn) [Compound A, 6-O-octadeca-9,12-dienoyl-D-glucopyranose]: the inhibition at 1000 µM in data set [1] was found to be 71%. Besides, the “% of hydrolysis” value in data set [2] came out at 7%. Consider `CCCCCCCCCCCCCCCC(=O)OC[C@H]1OC(O)[C@H](O)[C@@H](O)[C@@H]1O` (stereo partly drawn) [Compound D, 6-O-hexadecanoyl-D-glucopyranose], for which 1000 µM produced 15% inhibition in data set [1].

Turning to `CCCCCC=CCC=CCCCCCCCC(=O)O[C@H]1[C@H](O)[C@@H](CO)OC(O)[C@@H]1O` (stereo partly drawn) [Compound E, 3-O-octadeca-9,12-dienoyl-D-glucopyranose], the inhibition at 1000 µM in data set [1] was 80%. In addition, the “% of hydrolysis” value in data set [2] was 30%.
